From patent publication US10300107B2, “Compositions and methods for CaMKII inhibitors and uses thereof” (THE REGENTS OF THE UNIVERSITY OF COLORADO, priority 2007, dated 2019)
“And” between values parts separate entries of the source, which are not always exact repeats. Identical values can stand only once. “Also recorded” adds a separate entry of the source. Like-named read-outs stand apart in the source and are kept apart here. Where no end group is shown, it is not given here.

Tests used:
[1] = tested on: hippocampal and cortical cultures; assay: Glutamate induced neuronal cell death measured by LDH release; type: cell-based, rat
Procedure: In another example, neuronal cell death is measured by LDH release. In this exemplary method, glutamate was used to induce neuronal cell death, A portion of CaMKIIN was fused to a cell penetrating molecule to generate tatCN21a construct.

[2] = tested on: Langerhans' islets; assay: Glucose-induced insulin secretion from isolated Langerhans' islets; type: cell-based, rat; conditions: 11 mM glucose; EGTA 0.5 mM, KN93 10 μM, antCN27 5 μM, tatCN21 5 μM
Procedure: Insulin secretion. Langerhans' islets acutely isolated from adult male Wistar rats (Harlan) were obtained. […] Inhibitors or EGTA were added 30 min before stimulation. Insulin secreted into the medium during 90 min stimulation was measured using an ELISA kit (CrystalChem).

[3] = biological target: T1, CaMKII binding to GST-NR2B-c (Homo sapiens, UniProt Q9UQM7); assay: Ca2+/CaM-induced CaMKII binding to immobilized GST-NR2B-c; conditions: Western blot of eluted CaMKII
T1 construct: made in house; host or cells: CaMKII: baculovirus/Sf9; GST-NR2B-c and CaM: bacteria
Procedure: CaMKII binding to NR2B-c was assessed as previously described. Briefly, GST-NR2B-c was immobilized on anti-GST coated microtiter plates, then overlaid with 100 nM CaMKII in presence of Ca^2+/CaM and 1 or 5 μM of various CN peptides. After extensive wash, protein was eluted from the plates by boiling in SDS-loading buffer. Eluted CaMKII was detected by Western-blot as described above.

[4] = tested on: CaMKII; type: biochemical; conditions: for potency of CaMKII inhibition of CN19 combination mutants: comparator as stated in the value; for effect of further mutation on potency of CaMKII inhibition: CN19a2v background; for IC50: read-out: IC50 of CaMKII inhibition
Procedure: CaMKII activity assays. Standard CaMKII assays were done for 1 min at 30° C. previously described, with 20 nM CaMKII (subunit, not holoenzyme concentration), 50 mM PIPES pH 7.2, 0.1 mg/ml BSA, 10 mM MgCl2, 100 μM [γ-^32P] ATP (˜1 Ci/mmol), 1 mM CaCl2, 1-2 μM CaM, and 30-60 μM AC2 peptide (or syntide2). The reactions were spotted onto Whatman P81 phosphocellulose paper rectangles (˜2×2.5 cm). To remove free radioactivity, the paper rectangles were rinsed and washed for 30 min under agitation in 0.5% phosphoric acid or water. […] Radioactivity of the bound peptides was quantified in a Beckman 6000TA scintillation counter by the Cherenkov method. Any changes of the standard protocol were done as indicated. For assays of the GFP-CaMKIIα mutants, kinase amounts were normalized by GFP fluorescence in the extract, and total protein was adjusted with Cos-7 extracts.

[5] = biological target: CaMKI (Homo sapiens, UniProt Q14012); assay: CaMKI activity / inhibition; type: biochemical
From the text: For curve fit, the Hill coefficient was set as 1.

[6] = biological target: calmodulin (CaM) (Homo sapiens, UniProt P0DP23); assay: Binding to calmodulin (slot blot, blot overlay, TA-CaM competition with CBD); conditions: for binding of biotinylated CaM to immobilized peptide: slot blot
Procedure: TA-labeled CaM represents reduced fluorescence after binding to CaMKII or its CaM binding domain (CBD; −0.05 nM kD for CaM^5; see also FIG. 9G).
Measured was AC2 phosphorylation as described^4. Error bars show s.e.m.

CaMKI, sequence (Q14012 whole entry, species assumed): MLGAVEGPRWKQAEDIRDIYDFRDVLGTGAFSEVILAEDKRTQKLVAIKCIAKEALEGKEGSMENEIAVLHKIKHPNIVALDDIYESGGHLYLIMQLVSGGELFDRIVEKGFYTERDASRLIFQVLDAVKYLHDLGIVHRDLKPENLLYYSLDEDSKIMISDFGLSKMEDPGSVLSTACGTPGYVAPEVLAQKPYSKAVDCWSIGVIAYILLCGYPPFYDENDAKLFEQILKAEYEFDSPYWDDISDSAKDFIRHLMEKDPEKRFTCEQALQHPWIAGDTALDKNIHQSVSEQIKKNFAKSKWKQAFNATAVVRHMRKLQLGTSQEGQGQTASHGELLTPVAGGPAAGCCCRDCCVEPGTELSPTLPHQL

With `N[C@@H](CCCP(=O)(O)O)C(=O)O` [APV] the “glutamate induced cell death” value ([1]; 7DIV cortical, added 1-6 hours post insult) was “did not” and the “glutamate induced neuronal cell death” value ([1]; present during the insult) was “only reduces cell death when present during the insult”.
`O=C(O)CN(CCOCCOCCN(CC(=O)O)CC(=O)O)CC(=O)O` [EGTA] was tested, and the glucose-induced insulin secretion [2] was “inhibited”.
`CC1CNCCN1S(=O)(=O)c1cccc2cnccc12` (stereo not drawn) [H7, reference compound] was tested, and the “CaMKII binding to immobilized GST-NR2B-c / NR2B” value [3] was “did not”.
With “CN17a: C-terminal truncation of CN21a by 4 amino acids (KRPPKLGQIGRSKRVVI)” the “inhibitory potency on CaMKII activity” value ([4]; CN truncation peptides, substrate peptides AC2 or syntide 2) was “still clearly affected CaMKII activity”.
With “CN19a2: CN19 double mutant P3A, R14A, SEQ ID NO: 25 (KRAPKLGQIGRSKAVVIED; Derived from CamKIIN with amino acid substitutions)” the “potency of CaMKII inhibition of CN19 combination mutants” value [4] was “largest increase in CaMKII inhibition potency; also recorded: most potent double mutant of CN19” and the “potency of CaMKII inhibition of CN19 combination mutants” value ([4]; listed as a2) was “higher potency than the a3 mutant; also recorded: significant inhibition even at 10 nM”.
With “CN19a3: CN19 triple mutant P3A, K13A, R14A (KRAPKLGQIGRSAAVVIED)” the “potency of CaMKII inhibition of CN19 combination mutants” value [4] was “significantly increased over CN19 wild type; also recorded: significantly increased potency compared to single mutant with the highest potency, R14A” and the “potency of CaMKII inhibition of CN19 combination mutants” value ([4]; listed as a3) was “significantly increased potency of CaMKII inhibition over CN19 wild type; also recorded: slightly better inhibition than the aX mutant”.
In the case of “CN27: CaM-KIINtide, previously identified inhibitory region of CaM-KIIN, SEQ ID NO:17 (KRPPKLGQIGRSKRVVIEDDRIDDVLK; Derived from CaMKIIN) [reference compound]”, the “effect on CaMKI activity” value [5] is reported as “no significant effect” and the “inhibition of CaMKII isoforms α and β” value [4] is reported as “inhibit both major brain CaMKII isoforms, α and β”.
KRAPKLGQIGRQKAVVIED [CN19a2v V12Q] was tested, and the “effect of further mutation on potency of CaMKII inhibition” value [4] was “significantly increase potency; also recorded: dramatically increase CaMKII inhibition” and the IC50 ([4]; phosphorylation of syntide 2) was roughly 0.001 µM.
With KRAPKLGQIGRVKAVDIED [CN19a2v V16D] the “effect of further mutation on potency of CaMKII inhibition” value [4] was “significantly increase potency; also recorded: dramatically increase CaMKII inhibition” and the IC50 ([4]; phosphorylation of syntide 2) was roughly 0.001 µM.
In the case of KRAPKLGQIGRVKAVVIED [CN19a2v], the IC50 [5] is reported as roughly 18 µM, the “increase of potency of CaMKII inhibition compared to CN19” value [4] is reported as “about 5 fold” and the “potency of CaMKII inhibition of CN19 combination mutants” value [4] is reported as “without loss of inhibition potency; also recorded: significantly stronger compared to CN19a3 with additional S12V mutation; also recorded: did not reduce potency”. For the same molecule, the IC50 ([4]; phosphorylation of syntide 2) was ~0.02 µM and 0.02 µM.
With KRPPKLGQIGRSKAVVIED [R14A] the “increase of potency of CaMKII inhibition compared to CN19” value [4] was “over 10 fold”, the “effect of single CN19 mutation on potency of CaMKII inhibition” value ([4]; compared to CN19 wild type) was “significantly increased potency; also recorded: very potent” and the “IC50 of CaMKII inhibition” value ([4]; phosphorylation of syntide 2) was “single digit”.
For KRPPKLGQIGRSKRVVIEDD [CN20], the IC50 ([4]; phosphorylation of syntide 2) was roughly 0.1 µM.
With RQIKIWFQNRRMKWK [ant] the Kd [6] was roughly 0.005 µM, the “competition with CBD for binding of TA-labeled CaM” value [6] was “compete” and the “interference with Ca2+-dependent CaM binding to brain proteins” value ([6]; blot overlay assay, 5 μM peptide) was “also interfered with such CaM binding, but somewhat less efficiently than antCN27; also recorded: affect Ca^2+-dependent CaM binding”. For the same molecule, the “binding of biotinylated CaM to immobilized peptide” value [6] was “Direct binding”.
With “V16D: CN19 position 16 substituted with D (rational mutagenesis) (KRAPKLGQIGRVKAVDIED)” the “Effects of individual CN19 mutations on CaMKII inhibition: column +” value ([4]; value = substituting residue listed under +) was “D*”.
“tat: cell penetrating sequence YGRKKRRQRRR, SEQ ID NO:15 [reference compound]” was tested, and the “effect on CaMKI activity” value [5] was “statistically significant but much milder effects” and the “binding of biotinylated CaM to immobilized peptide” value [6] was “did not bind”.
